Experimental data reported in ChEMBL document CHEMBL3227957, “(+)-Isobutaclamol: a crystallographic, pharmacological, and biochemical study” (J Med Chem, 1979).

Assays:
Rattus norvegicus [1] = species on record: Rattus norvegicus; assay: Displacement of [3H]haloperidol from rat striatum dopamine receptor at 1000 nM
Rattus norvegicus [2] = assay: Inhibition of (+)-amphetamine-induced stereotyped behavior in ip dosed rat administered 15 mins prior to (+)-amphetamine challenge measured after 15 mins; format: functional; conditions: read-out: MED
Bos taurus = species on record: Bos taurus; assay: Displacement of [3H]spiperone from calf striatum dopamine receptor at 1000 nM
[3] = Displacement of [3H]haloperidol from rat striatum dopamine receptor
[4] = Displacement of [3H]spiperone from calf striatum dopamine receptor; design: species or system Bos taurus

Row | inhibition (Rattus norvegicus [1]) [%] | inhibition (Bos taurus) [%] | IC50 [3] [nM] | IC50 [4] [nM] | SMILES | minimal effective dose (Rattus norvegicus [2]) [mg/kg]
1 | 0 | 0 |  |  | Br.CC(C)(C)[C@@]1(O)CCN2C[C@@H]3Cc4ccccc4Cc4cccc(c43)[C@H]2C1 | > 25
2 |  |  | 0.8 | 0.8 | Br.CC(C)(C)[C@]1(O)CCN2C[C@H]3Cc4ccccc4Cc4cccc(c43)[C@@H]2C1 | 0.31
3 |  |  | 1.7 | 1.7 | CC(C)(C)[C@]1(O)CCN2C[C@H]3Cc4ccccc4Cc4cccc(c43)[C@@H]2C1.Cl (racemic) | 0.62
